From patent publication US11572341B2, “Biguanide compound and use thereof” (ImmunoMet Therapeutics Inc., priority 2014, dated 2023)
Structures can show the parent of a compound that is named as a salt.

Experiments:
HCT116 cells = assay: Inhibitory effect against cancer cell proliferation (MTT); assay type: cell-based, human; conditions: Homo sapiens, HCT-116; HCT116, MTT, 48 hours; read-out: IC50 (uM) @ HCT116
Protocol: The formazane crystals thus formed were dissolved using dimethyl sulfoxide (DMSO) and absorbance of the solution was measured at 560 nm. After culturing for 48 hours, […] synthesized in Examples was indicated as cell viability (%) according to each treated concentration.

AMPKa [pT172] = assay: AMPKa activation [pT172] in MCF7 cell; assay type: cell-based

Row | SMILES | IC50 (HCT116 cells) [µM] | AMPKa activation [pT172] (Unit/ml) @ MCF7 cell (AMPKa [pT172]; 5 uM) [Unit/ml] | AMPKa activation [pT172] (Unit/ml) @ MCF7 cell (AMPKa [pT172]; 10 uM) [Unit/ml] | AMPKa activation [pT172] (Unit/ml) @ MCF7 cell (AMPKa [pT172]; 50 uM)
1 | Cl.N=C(NCc1cccc(C(F)(F)F)c1)NC(=N)Nc1cccnc1 [Example 43, N1-3-pyridin-N5-(3-trifluoromethyl)benzyl Biguanide Hydrochloride] | 100 | 3.0 | 4.3 | 7.6 Unit/ml
2 | CC1CCCN(C(=N)NC(=N)NC2CCCC2)C1.Cl (centres unmarked) [Example 44, N1-(3-methyl)piperidin-N5-cyclopentyl Biguanide Hydrochloride] | > 100 | 4.5 | 5.2 | 14.8 Unit/ml
3 | COC1CCN(C(=N)NC(=N)N2CCCC(C)C2)CC1.Cl (centres unmarked) [Example 45, N1-(3-methyl)piperidin-N5-(4-methoxy)piperidine Biguanide Hydrochloride] | > 100 | 3.0 | 4.0 | 3.5 Unit/ml
4 | CCOC1CCN(C(=N)NC(=N)N2CCCC(C)C2)CC1 (centres unmarked) [Example 46, N1-(3-methyl)piperidin-N5-(4-ethos)piperidine Biguanide Hydrochloride] | > 100 | 3.8 | 3.6 | 5.4 Unit/ml
5 | CC1CCCN(C(=N)NC(=N)Nc2cnccn2)C1.Cl (centres unmarked) [Example 47, N1-(3-methyl)piperidin-N5-pyrazin-2-yl Biguanide Hydrochloride] | 130 | 2.8 | 3.8 | 5.3 Unit/ml
6 | CC1CCN(C(=N)NC(=N)Nc2ccc(Br)cc2)CC1.Cl [Example 48, N1-(4-methyl)piperidin-N5-(4-bromo)phenyl Biguanide Hydrochloride] | 8.6 | 4.3 | 6.8 | cell death
7 | CC1CCN(C(=N)NC(=N)Nc2cccc(OC(F)(F)F)c2)CC1.Cl [Example 49, N1-(4-methy)piperidin-N5-(3-trifluoromethoxy)phenyl Biguanide Hydrochloride] | 5.1 | 9.3 | 13.7 | cell death
8 | CC1CCN(C(=N)NC(=N)Nc2cccc(C(F)(F)F)c2)CC1.Cl [Example 50, N1-(4-methyl)piperidin-N5-(3-trifluoromethyl)phenyl Biguanide Hydrochloride] | 6.7 | 8.3 | 11.5 | cell death
9 | CC1CCCN(C(=N)NC(=N)Nc2cccc(C(F)(F)F)c2)C1.Cl (centres unmarked) [Example 51, N1-(3-methyl)piperidin-N5-(3-trifluoromethyl)phenyl Biguanide Hydrochloride] | 6.6 | 12.5 | 15.2 | cell death
10 | CC1CCN(C(=N)NC(=N)Nc2ccc(OC(F)(F)F)cc2)CC1.Cl [Example 52, N1-(4-methyl)piperidin-N5-(4-trifluoromethoxy)phenyl Biguanide Hydrochloride] | 6.8 | 9.4 | 15.0 | cell death
11 | CC1CCN(C(=N)NC(=N)Nc2ccc(C(F)(F)F)cc2)CC1.Cl [Example 53, N1-(4-methyl)piperidin-N5-(4-trifluoromethyl)phenyl Biguanide Hydrochloride] | 6.1 | 9.2 | 13.9 | cell death
